What was measured:
Type in all cases: in vivo
[1] = test system: uremic Sprague Dawley rat; assay: Natriuretic response (Na+ and K+ urine excretion) after i.v. administration in a uremic Sprague Dawley rat
Description: Female Sprague-Dawley rat, weighing 225 g, was made uremic by tying off one kidney and 30-50% of the second kidney. Two weeks later the rat was ready to test for natriuretic activity. The rat was anesthetized lightly with ether and a tail vein catheter was placed using PE10 tubing. Additionally, a urethra catheter was inserted using KY jelly and 2% lidocaine as a lubricant. The rat was restrained in a modified Plexiglas tube so that urine could be collected in 1.5-mL microcentrifuge tubes. Saline infusion started at time zero at 0.02 mL/min for the length of the assay. The same i.v. catheter was used to inject isolated xanthurenic acid 8-O-β-glucoside at the time indicated in a 1-mL volume in saline over the course of 10 minutes. […] The tubes were centrifuged at 14,000 rpm to separate any RBC's from the urine. Na^+ and K^+ concentrations in the urine were measured with respective ion selective electrodes. The Na^+ and K^+ excretion rates were calculated by: (vol of urine/time of collection period)×(ion urine concentration).
A female Sprague-Dawley rat, weighing 225 g, was made uremic by tying off one kidney and 30-50% of the second kidney. Two weeks later the rat was ready to test for natriuretic activity. The rat was anesthetized lightly with ether and a tail vein catheter was placed using PE10 tubing. Additionally, a urethra catheter was inserted using KY jelly and 2% lidocaine as a lubricant. The rat was restrained in a modified Plexiglas tube so that urine could be collected in 1.5-mL microcentrifuge tubes. Saline infusion started at time zero at 0.02 mL/min for the length of the assay. The same i.v. catheter was used to inject the test compound. Isolated xanthurenic acid 8-O-sulfate, 2 μg, was injected at the time indicated in a 1 mL volume in saline over the course of 10 minutes. Then saline infusion was returned to 0.02 mL/min for the duration of the assay. The tubes were centrifuged at 14,000 rpm to separate any RBC's from the urine. Na^+ and K^+ concentrations in the urine were measured with respective ion selective electrodes. The Na^+ and K^+ excretion rates were calculated by: (vol of urine/time of collection period)×(ion urine concentration).

[2] = test system: normal Sprague Dawley rat; assay: Natriuretic response (Na+ and K+ urine excretion) after oral administration in a normal Sprague Dawley rat
Protocol: A female Sprague Dawley rat (250 g) was anesthetized lightly with ether and a urethra catheter was inserted using KY jelly and 2% lidocaine as a lubricant. The rat was restrained in a modified Plexiglas tube so that urine could be collected in 1.5-mL microcentrifuge tubes. No saline infusion was administered. Synthetic xanthurenic acid 8-O-β-D-glucoside was injected with a feeding needle at the time indicated in a 1-mL volume of water over the course of 1 minute. […] The tubes were centrifuged at 14,000 rpm to separate any RBC's from the urine. Na^+ and K^+ concentrations in the urine were measured with respective ion selective electrodes. The Na^+ and K^+ excretion rates were calculated by: (vol of urine/time of collection period)×(ion urine concentration).
A female Sprague Dawley rat (250 g) was anesthetized lightly with ether and a urethra catheter was inserted using KY jelly and 2% lidocaine as a lubricant. The rat was restrained in a modified Plexiglas tube so that urine could be collected in 1.5-mL microcentrifuge tubes. No saline infusion was administered. Xanthurenic acid 8-O-sulfate was injected with a feeding needle at the time indicated in a 1-mL volume of water over the course of 1 minute. The tubes were centrifuged at 14,000 rpm to separate any RBC's from the urine. Na^+ and K^+ concentrations in the urine were measured with respective ion selective electrodes. The Na^+ and K^+ excretion rates were calculated by: (vol of urine/time of collection period)×(ion urine concentration).

[3] = test system: normal Sprague Dawley rat; assay: Natriuretic response (Na+ and K+ urine excretion) after i.v. administration in a normal Sprague Dawley rat; conditions: for natriuretic response (Na+ excretion): 2 μg i.v., FIGS. 1-4
Protocol: A female Sprague Dawley rat (250 g) was anesthetized lightly with ether and a tail vein catheter was placed using PE10 tubing. Additionally, a urethra catheter was inserted using KY jelly and 2% lidocaine as a lubricant. The rat was restrained in a modified Plexiglas tube so that urine could be collected in 1.5-mL microcentrifuge tubes. Saline infusion started at time zero at 0.02 mL/min for the duration of the assay. The same i.v. catheter was used to inject the test compound. Synthetic xanthurenic acid 8-O-β-D-glucoside, 2 μg, was injected at the time indicated in a 1-mL volume in saline over the course of 10 minutes. The tubes were centrifuged at 14,000 rpm to separate any RBC's from the urine. Na^+ and K^+ concentrations in the urine were measured with respective ion selective electrodes. The Na^+ and K^+ excretion rates were calculated by: (vol of urine/time of collection period)×(ion urine concentration). […] Given an extracellular volume of 50 mL in a 250-g rat, the concentration of the test compound was […], a possible minimum dose.
A female Sprague Dawley rat (250 g) was anesthetized lightly with ether and a tail vein catheter was placed using PE10 tubing. Additionally, a urethra catheter was inserted using KY jelly and 2% lidocaine as a lubricant. The rat was restrained in a modified Plexiglas tube so that urine could be collected in 1.5-mL microcentrifuge tubes. Saline infusion started at time zero at 0.02 mL/min for the length of the assay. The same i.v. catheter was used to inject the test compound. Synthetic xanthurenic acid 8-O-β-D-glucoside, 10 μg i.v. was injected at the time indicated in a 1-mL volume in saline over the course of 10 minutes. At the indicated time the saline infusion was increased tenfold to 0.2 mL/min for ten minutes and returned to 0.02 mL/min for the duration of the assay. The tubes were centrifuged at 14,000 rpm to separate any RBC's from the urine. Na^+ and K^+ concentrations in the urine were measured with respective ion selective electrodes. The Na^+ and K^+ excretion rates were calculated by: (vol of urine/time of collection period)×(ion urine concentration).

[4] = i.v. administered sulfate, FIG. 19

O=C(O)c1cc(=O)c2cccc(OS(=O)(=O)O)c2[nH]1 [xanthurenic acid 8-O-sulfate, Xanthurenic Acid 8-O-sulfate]
Na+ urine concentration after the increase [1, 4]: 160 mM
Na+ urine concentration before the increase [1, 4]: 60 mM
time until natriuresis approached control levels ([1]; isolated sulfate 2 μg i.v., uremic rat): ≤ 70 min
natriuretic response ([1]; isolated sulfate 2 μg i.v., uremic rat, FIGS. 17-20): caused sustained natriuretic response
time to peak of natriuresis ([1]; isolated sulfate 2 μg i.v., uremic rat, FIGS. 17 and 18): ≤ 30 min
K+ excretion ([1]; isolated sulfate 2 μg i.v., uremic rat, FIGS. 18 and 19): did not increase
Na+ urine concentration ([2]; 20 ug oral, synthetic sulfate, normal rat): below 50 mM
natriuretic response ([2]; 20 ug oral, synthetic sulfate, normal rat, FIGS. 21-24): not orally active

O=C(O)c1cc(=O)c2cccc(O[C@@H]3OC(CO)[C@@H](O)[C@H](O)C3O)c2[nH]1 (stereo partly drawn) [xanthurenic acid 8-O-β-D-glucoside, Xanthurenic acid 8-O-β-D-glucoside]
natriuretic response (Na+ excretion) ([3]; synthetic compound, normal rat): caused a sustained natriuretic response
Na+ excretion rate before increase of saline infusion ([3]; 10 μg i.v., saline 0.02 mL/min, FIG. 6): 2 uEq/min
Na+ excretion rate after saline infusion increased tenfold ([3]; 10 μg i.v., saline 0.2 mL/min for 10 minutes, FIG. 6): 10 uEq/min
time after administration at which urine production decreased ([3]; 10 μg i.v., saline infusion 0.02 mL/min): 140 min
K+ excretion ([3]; 10 μg i.v., synthetic compound, normal rat): did not increase
natriuretic response ([3]; 10 μg i.v., synthetic compound, normal rat, FIGS. 5-8): caused a sustained natriuretic response
natriuresis ([3]; synthetic glucoside given subsequently to xanthurenic acid 2 ug i.v., normal rat): did cause natriuresis
time of peak Na+ excretion ([1]; isolated glucoside 3 μg i.v., uremic rat, FIG. 13): 70 min
natriuretic response ([1]; isolated glucoside 3 μg i.v., uremic rat, FIGS. 13-16): caused a sustained natriuretic response
K+ excretion ([1]; isolated glucoside 3 μg i.v., uremic rat, FIGS. 14 and 15): did not increase
K+ excretion after furosemide ([1]; pretreatment with isolated glucoside 3 μg i.v. followed by furosemide 20 ug i.v., uremic rat, FIGS. 14 and 15): prevented the typical increase in K^+ excretion
natriuretic response ([2]; 10 μg oral, synthetic compound, normal rat, FIGS. 9-12): orally active
Na+ urine concentration reached ([2]; glucoside oral, normal rat, FIG. 11): 160 mM
K+ excretion ([2]; pretreatment with glucoside 10 μg oral followed by furosemide 100 μg oral, FIG. 10): did not increase K^+ excretion
furosemide-induced K+ excretion ([2]; pretreatment with glucoside 10 μg oral, furosemide 100 μg oral): inhibited

O=C(O)c1cc(O)c2cccc(O)c2n1 [xanthurenic acid]
natriuretic response (Na+ excretion) ([3]; synthetic compound, normal rat): did not increase Na^+ excretion
